# Laboratory results as given in article PMC3753695 (Neuron, 2013).
# Molecular target: T1, OBP49a (Drosophila melanogaster, UniProt A1Z947)
# T1 sequence (A1Z947 23-212): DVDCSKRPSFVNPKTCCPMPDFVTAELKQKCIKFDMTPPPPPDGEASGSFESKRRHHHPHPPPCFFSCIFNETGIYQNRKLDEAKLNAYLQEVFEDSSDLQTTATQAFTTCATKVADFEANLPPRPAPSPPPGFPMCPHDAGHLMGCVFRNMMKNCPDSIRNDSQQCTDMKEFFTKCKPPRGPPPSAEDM
# Test: surface plasmon resonance
# Assay type: binding
# Conditions: pH 7.4; 25 °C; HBS-P (10 mM HEPES, 150 mM NaCl, 0.005 % Surfactant P20); dose-dependent
row,SMILES,"surface plasmon resonance (BIAcore 3000, OBP49a on CM5 chip)"
1,COc1ccc2cc3[n+](cc2c1OC)CCc1cc2c(cc1-3)OCO2 [berberine],"berberine, denatonium and quinine bound to OBP49a in a dosedependent manner"
2,CC[N+](CC)(CC(=O)Nc1c(C)cccc1C)Cc1ccccc1 [denatonium],"berberine, denatonium and quinine bound to OBP49a in a dosedependent manner"
3,C=C[C@H]1CN2CC[C@H]1C[C@H]2[C@H](O)c1ccnc2ccc(OC)cc12 [quinine],"berberine, denatonium and quinine bound to OBP49a in a dosedependent manner"
